# Paper PMC7026641, “Identification of the 3-amino-3-carboxypropyl (acp) transferase enzyme responsible for acp^3U formation at position 47 in Escherichia coli tRNAs” (Nucleic Acids Research, 2019)
# Experiments:
# [1] = biological target: T1, YfiP (TuaA, tRNA U47 acp transferase A) (Escherichia coli, UniProt Q47319); assay: ITC, […]°C, one-site binding model
# T1 construct: gene tapT; E. coli YfiP with a C-terminal 6xHis-tag
# T1 sequence (Q47319 1-232): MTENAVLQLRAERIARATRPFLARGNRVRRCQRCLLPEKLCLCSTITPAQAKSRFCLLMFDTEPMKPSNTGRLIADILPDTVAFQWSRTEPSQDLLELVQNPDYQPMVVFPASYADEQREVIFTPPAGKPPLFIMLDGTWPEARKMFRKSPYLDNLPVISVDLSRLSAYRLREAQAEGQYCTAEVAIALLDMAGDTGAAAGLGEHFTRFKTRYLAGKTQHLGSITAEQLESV
# [2] = biological target: T1, YfiP (TuaA, tRNA U47 acp transferase A); assay: ITC, […]°C, one-site binding model; also in vitro acp transfer to tRNA
Structure (SMILES),Kd [1] [µM],Kd [2] [µM]
"CSC[C@H]1O[C@@H](n2cnc3c(N)ncnc32)[C@H](O)[C@@H]1O [5-MTA, 5′-methyl 5′-deoxythioadenosine]",131,–
"Nc1ncnc2c1ncn2[C@@H]1O[C@H](CSCC[C@H](N)C(=O)O)[C@@H](O)[C@H]1O [SAH, S-adenosylhomocysteine]",84,–
"C[S+](CC[C@H](N)C(=O)O)C[C@H]1O[C@@H](n2cnc3c(N)ncnc32)[C@H](O)[C@@H]1O (stereo partly drawn) [SAM, S-adenosyl methionine]",–,32
